Measurements as given in US20240287080A1 (IDEAYA Biosciences Inc., priority 2021, published 2024).

Molecular target: T1, Pol theta (1-899) (Homo sapiens, UniProt O75417)
T1 construct: Pol theta (1-899) (5 nM) in assay buffer
Assay: Pol theta ATPase activity, NADH oxidation-coupled enzymatic assay (ATPase NADH coupling: Standard Screening: hPolQ)
Type: biochemical
Details: Pol theta (1-899) 5 nM, NADH oxidation-coupled ATPase assay; compounds of Table 3
Method in brief: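 NADH-coupled ATPase readout: 5 nM Pol theta (1-899) preincubated 15 min with 10-point compound series in Tris pH 7.80, KCl, MgCl2, DTT, BSA, Tween, glycerol, then 100 μM ATP, 300 nM 50-mer poly-dT ssDNA, NADH, PEP, LDH and PK added (stock levels). A340 followed 60 min; slopes fit four-parameter for IC50.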

T1 sequence (O75417 1-899): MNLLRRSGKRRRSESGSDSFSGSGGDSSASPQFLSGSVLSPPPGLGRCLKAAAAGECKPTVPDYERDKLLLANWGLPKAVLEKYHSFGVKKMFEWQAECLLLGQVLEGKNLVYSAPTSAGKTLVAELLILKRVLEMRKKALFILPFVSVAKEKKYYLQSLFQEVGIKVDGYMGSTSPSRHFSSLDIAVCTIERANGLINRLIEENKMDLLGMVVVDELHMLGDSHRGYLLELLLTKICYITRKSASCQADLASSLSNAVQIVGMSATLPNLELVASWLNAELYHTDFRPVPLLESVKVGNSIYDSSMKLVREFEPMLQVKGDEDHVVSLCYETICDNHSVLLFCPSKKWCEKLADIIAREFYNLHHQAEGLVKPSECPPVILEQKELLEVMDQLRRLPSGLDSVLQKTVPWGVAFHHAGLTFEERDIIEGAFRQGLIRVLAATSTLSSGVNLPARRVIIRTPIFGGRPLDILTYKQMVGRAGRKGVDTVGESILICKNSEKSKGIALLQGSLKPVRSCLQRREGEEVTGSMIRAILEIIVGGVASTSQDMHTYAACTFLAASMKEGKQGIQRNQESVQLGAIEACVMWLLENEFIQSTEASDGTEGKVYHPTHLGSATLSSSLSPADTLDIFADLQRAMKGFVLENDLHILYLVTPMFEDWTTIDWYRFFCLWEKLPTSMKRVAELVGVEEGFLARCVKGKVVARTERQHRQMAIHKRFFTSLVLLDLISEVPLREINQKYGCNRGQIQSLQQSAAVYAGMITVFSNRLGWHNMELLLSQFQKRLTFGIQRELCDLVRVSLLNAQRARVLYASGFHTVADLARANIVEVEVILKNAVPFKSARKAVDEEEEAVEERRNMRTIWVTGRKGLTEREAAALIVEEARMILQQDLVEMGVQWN

Compound	IC50 [nM]
COc1nnc(NC(=O)c2cnc(C)cc2-c2ccc(C)cc2C)s1 [Example 386, 4-(2,4-dimethylphenyl)-N-(5-methoxy-1,3,4-thiadiazol-2-yl)-6-methylpyridine-3-carboxamide]	500 to 1000
COc1nnc(NC(=O)c2cnc(C)cc2-c2cscc2C#N)s1 [Example 442, 4-(4-cyanothiophen-3-yl)-N-(5-methoxy-1,3,4-thiadiazol-2-yl)-6-methylpyridine-3-carboxamide]	1000 to 10000
COc1cnc(Cl)cc1-c1cc(C)ncc1C(=O)Nc1nnc(O[C@H]2C[C@H]3C[C@@H]2C[C@@H]3O)s1 (single isomer, unassigned) [Example 269]	≤ 200
COc1nnc(NC(=O)c2cnc(C)cc2-c2ccc(OC(F)F)cc2)s1 [Example 448, 4-[4-(difluoromethoxy)phenyl]-N-(5-methoxy-1,3,4-thiadiazol-2-yl)-6-methylpyridine-3-carboxamide]	1000 to 10000
COc1cnc(Cl)cc1-c1cc(C)ncc1C(=O)Nc1nnc(O[C@@H]2CCCN([C@H]3CCOC3)C2)s1 [Example 275, 2′-chloro-5′-methoxy-6-methyl-N-(5-(((R)-1-((S)-tetrahydrofuran-3-yl)piperidin-3-yl)oxy)-1,3,4-thiadiazol-2-yl)-[4,4′-bipyridine]-3-carboxamide]	≤ 200
COc1cnc(C)c(F)c1-c1cc(C)ncc1C(=O)Nc1nnc(O[C@H]2CCC[C@H](O)C2)s1 (single isomer, unassigned) [Example 256]	≤ 200
COc1nnc(NC(=O)c2cnc(C)cc2-c2cnc(C(F)(F)F)cc2C)s1 [Example 424, N-(5-methoxy-1,3,4-thiadiazol-2-yl)-4,6′-dimethyl-6-(trifluoromethyl)-[3,4′-bipyridine]-3′-carboxamide]	1000 to 10000

Same assay, conditions: Table 4; Pol theta (1-899) 5 nM, ATP, dT50 ssDNA

Compound	IC50 [nM]
COc1nnc(NC(=O)c2cnc(C)cc2-c2cc(Cl)ccc2OC)s1 [Example 9, 4-(5-chloro-2-methoxyphenyl)-N-(5-methoxy-1,3,4-thiadiazol-2-yl)-6-methylnicotinamide]	≤ 200
COc1cnc(Cl)cc1-c1cc(C)ncc1C(=O)Nc1nnc(OCC(C)(C)C#N)s1 [Example 10, 2′-chloro-N-(5-(2-cyano-2-methylpropoxy)-1,3,4-thiadiazol-2-yl)-5′-methoxy-6-methyl-(4,4′-bipyridine)-3-carboxamide]	≤ 200

Same assay, conditions: Table 5; Pol theta (1-899) 5 nM, ATP, dT50 ssDNA

Compound	IC50 [nM]
COc1cnc(Cl)c(F)c1-c1cc(C)ncc1C(=O)Nc1nnc(O[C@H]2CCC[C@H](O)C2)s1 (single isomer, unassigned) [Example 156]	≤ 200
COc1cnc(Cl)cc1-c1cc(C)ncc1C(=O)Nc1nnc(O[C@@H]2COC3(CC3)C2)s1 (single isomer, unassigned) [Example 228]	≤ 200
COc1cnc(Cl)cc1-c1cc(C)ncc1C(=O)Nc1nnc(O[C@H]2CC[C@H]2O)s1 (racemic) [Example 112, rac-2′-chloro-N-(5-((1R,2S)-2-hydroxycyclobutoxy)-1,3,4-thiadiazol-2-yl)-5′-methoxy-6-methyl-(4,4′-bipyridine)-3-carboxamide]	200 to 500
COc1cnc(Cl)cc1-c1cc(C)ncc1C(=O)Nc1nnc(O[C@H]2CCC[C@@](C)(O)C2)s1 (racemic) [Example 177, rac-2′-chloro-N-(5-(((1R,3S)-3-hydroxy-3-methylcyclohexyl)oxy)-1,3,4-thiadiazol-2-yl)-5′-methoxy-6-methyl-(4,4′-bipyridine)-3-carboxamide]	200 to 500
COc1cnc(Cl)cc1-c1cc(C)ncc1C(=O)Nc1nnc(O[C@H]2C[C@@H](O)C2(C)C)s1 (single isomer, unassigned) [Example 183, 2′-chloro-N-(5-((1r,3s)-3-hydroxy-2,2-dimethylcyclobutoxy)-1,3,4-thiadiazol-2-yl)-5′-methoxy-6-methyl-(4,4′-bipyridine)-3-carboxamide]	≤ 200
COc1cnc(Cl)cc1-c1cc(C)ncc1C(=O)Nc1nnc(O[C@H]2CC[C@H](CO)CC2)s1 [Example 168, 2′-chloro-N-(5-(((1r,4r)-4-(hydroxymethyl)cyclohexyl)oxy)-1,3,4-thiadiazol-2-yl)-5′-methoxy-6-methyl-(4,4′-bipyridine)-3-carboxamide]	≤ 200
